Experimental data published in ChEMBL document CHEMBL4422692, “Plant-Based Modulators of Endocannabinoid Signaling” (J Nat Prod, 2019).
Blank lines part the entries; values can stand above or below the molecule they belong to.

Legend:
Cannabinoid receptor 2 [1] = target: T1, Cannabinoid receptor 2 (Homo sapiens, UniProt P34972); assay: Displacement of [3H]-CP55940 from recombinant CB2 receptor (unknown origin) expressed in cell membranes after 90 mins by scintillation counting method
[2] = target: T2, Fatty-acid amide hydrolase 1 (Homo sapiens) (UniProt O00519); assay: Inhibition of FAAH in human U937 cell homogenates at 100 uM using [14C]-AEA as substrate preincubated for 15 mins followed by substrate addition and measured after 15 mins by liquid scintillation counting method relative to control
T2 sequence (whole entry): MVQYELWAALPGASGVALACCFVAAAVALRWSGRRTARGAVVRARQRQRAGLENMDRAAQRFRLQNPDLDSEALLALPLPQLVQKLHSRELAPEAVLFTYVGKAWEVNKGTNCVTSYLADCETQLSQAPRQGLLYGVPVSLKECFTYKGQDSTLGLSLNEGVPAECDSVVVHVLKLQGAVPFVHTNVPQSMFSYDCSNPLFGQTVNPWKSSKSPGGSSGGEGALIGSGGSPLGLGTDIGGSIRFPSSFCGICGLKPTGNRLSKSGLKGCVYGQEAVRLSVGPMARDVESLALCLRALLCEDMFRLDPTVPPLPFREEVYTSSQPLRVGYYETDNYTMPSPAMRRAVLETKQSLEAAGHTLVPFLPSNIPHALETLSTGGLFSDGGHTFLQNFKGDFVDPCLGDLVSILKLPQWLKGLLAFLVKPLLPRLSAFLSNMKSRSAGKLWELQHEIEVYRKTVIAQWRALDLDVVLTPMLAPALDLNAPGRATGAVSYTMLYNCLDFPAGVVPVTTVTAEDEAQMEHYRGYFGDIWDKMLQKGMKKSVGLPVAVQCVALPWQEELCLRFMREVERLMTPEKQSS

U-937 = assay: Inhibition of [14C]-AEA uptake in human U937 cells preincubated for 15 mins followed by [14C]-AEA addition and measured after 5 mins by scintillation counting method; format: functional, cell-based
Monoglyceride lipase = target: T3, Monoglyceride lipase (Homo sapiens, UniProt Q99685); assay: Inhibition of MAGL in human U937 cell homogenates using [3H]-2OG as substrate preincubated for 15 mins followed by substrate addition and measured after 15 mins by liquid scintillation counting method
T3 sequence (Q99685 whole entry): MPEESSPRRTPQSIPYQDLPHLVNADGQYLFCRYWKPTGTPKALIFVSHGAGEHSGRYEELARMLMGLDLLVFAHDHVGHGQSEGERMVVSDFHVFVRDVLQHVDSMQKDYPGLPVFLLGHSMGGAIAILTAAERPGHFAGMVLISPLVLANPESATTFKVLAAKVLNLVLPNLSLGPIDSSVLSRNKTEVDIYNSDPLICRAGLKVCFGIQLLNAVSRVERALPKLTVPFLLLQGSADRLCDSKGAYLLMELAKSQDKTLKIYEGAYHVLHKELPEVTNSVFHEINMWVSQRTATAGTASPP

[3] = target: T4, Fatty-acid amide hydrolase 1 (Homo sapiens, UniProt O00519); assay: Inhibition of FAAH in human U937 cell homogenates using [14C]-AEA as substrate preincubated for 15 mins followed by substrate addition and measured after 15 mins by liquid scintillation counting method
T4 sequence (O00519 whole entry): T2 sequence (whole entry)

[4] = target: Fatty acid-binding protein 5 (Homo sapiens, UniProt Q01469); assay: Displacement of NBD-Stearate from recombinant human FABP5 measured after 30 mins by fluorescence polarization assay
Cannabinoid receptor 2 [5] = target: T1, Cannabinoid receptor 2; assay: Displacement of [3H]-CP55940 from recombinant human CB2 receptor measured after 2 hrs by liquid scintillation counting method
Cannabinoid receptor 1 [6] = target: T5, Cannabinoid receptor 1 (Homo sapiens, UniProt P21554); assay: Displacement of [3H]-CP55940 from recombinant human CB1 receptor measured after 2 hrs by liquid scintillation counting method
Cannabinoid receptor 2 [7] = target: Cannabinoid receptor 2 (Mus musculus, UniProt P47936); assay: Displacement of [3H]-CP55940 from CB2 receptor in mouse spleen membranes after 60 mins by scintillation counting method; format: cell membranes
Cannabinoid receptor 1 [8] = target: Cannabinoid receptor 1 (Rattus norvegicus, UniProt P20272); assay: Displacement of [3H]-CP55940 from CB1 receptor in rat […] membranes after 60 mins by scintillation counting method; format: cell membranes
Cannabinoid receptor 2 [9] = target: T1, Cannabinoid receptor 2; assay: Displacement of [3H]-CP55940 from recombinant human CB2 receptor expressed in HEK293 cell membranes after 90 mins by scintillation counting method
Cannabinoid receptor 1 [10] = target: T5, Cannabinoid receptor 1; assay: Displacement of [3H]-CP55940 from recombinant human CB1 receptor expressed in HEK293-EBNA cell membranes after 90 mins by scintillation counting method
Cannabinoid receptor 1 [11] = target: T5, Cannabinoid receptor 1; assay: Displacement of [3H]-CP55940 from CB1 receptor (unknown origin)
Cannabinoid receptor 2 [12] = target: T1, Cannabinoid receptor 2; assay: Displacement of [3H]-CP55940 from CB2 receptor (unknown origin)
Cannabinoid receptor 2 [13] = target: T1, Cannabinoid receptor 2; assay: Displacement of [3H]-CP55940 from recombinant human CB2 receptor expressed in HEK293 cell membranes measured after 90 mins

T1 sequence (P34972 whole entry): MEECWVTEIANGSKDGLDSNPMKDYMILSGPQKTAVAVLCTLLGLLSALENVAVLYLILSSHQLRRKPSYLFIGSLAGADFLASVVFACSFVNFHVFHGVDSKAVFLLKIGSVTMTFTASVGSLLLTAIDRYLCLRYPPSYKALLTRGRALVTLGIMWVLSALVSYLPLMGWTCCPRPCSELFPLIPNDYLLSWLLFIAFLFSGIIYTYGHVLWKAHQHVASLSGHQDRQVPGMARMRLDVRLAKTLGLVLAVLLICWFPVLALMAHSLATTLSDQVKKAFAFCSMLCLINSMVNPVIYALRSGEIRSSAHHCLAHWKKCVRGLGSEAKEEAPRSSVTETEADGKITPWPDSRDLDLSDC
Chain of Cannabinoid receptor 2 (Mus musculus, UniProt P47936) (P47936 whole entry): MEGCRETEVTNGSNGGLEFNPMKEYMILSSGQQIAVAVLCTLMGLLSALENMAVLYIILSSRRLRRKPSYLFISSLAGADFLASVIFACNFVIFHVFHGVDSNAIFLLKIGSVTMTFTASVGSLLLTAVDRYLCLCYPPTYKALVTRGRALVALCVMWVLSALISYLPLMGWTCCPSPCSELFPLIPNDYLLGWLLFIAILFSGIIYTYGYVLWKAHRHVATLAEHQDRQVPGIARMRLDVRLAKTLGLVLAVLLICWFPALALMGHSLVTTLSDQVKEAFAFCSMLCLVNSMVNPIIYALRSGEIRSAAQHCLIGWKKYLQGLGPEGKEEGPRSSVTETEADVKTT
T5 sequence (P21554 whole entry): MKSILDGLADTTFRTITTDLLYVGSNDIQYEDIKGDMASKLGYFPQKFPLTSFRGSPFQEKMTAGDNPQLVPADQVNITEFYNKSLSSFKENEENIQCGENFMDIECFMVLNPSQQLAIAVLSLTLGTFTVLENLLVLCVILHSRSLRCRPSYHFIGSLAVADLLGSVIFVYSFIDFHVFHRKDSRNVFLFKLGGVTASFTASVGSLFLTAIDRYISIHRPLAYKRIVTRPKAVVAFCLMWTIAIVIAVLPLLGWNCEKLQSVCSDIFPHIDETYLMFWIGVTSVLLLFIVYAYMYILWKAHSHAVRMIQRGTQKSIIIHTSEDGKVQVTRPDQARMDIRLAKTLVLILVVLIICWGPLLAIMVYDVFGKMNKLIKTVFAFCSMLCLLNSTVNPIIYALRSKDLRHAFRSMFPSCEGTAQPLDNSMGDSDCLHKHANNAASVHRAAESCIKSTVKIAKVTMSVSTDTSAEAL
Chain of Cannabinoid receptor 1 (Rattus norvegicus, UniProt P20272) (P20272 whole entry): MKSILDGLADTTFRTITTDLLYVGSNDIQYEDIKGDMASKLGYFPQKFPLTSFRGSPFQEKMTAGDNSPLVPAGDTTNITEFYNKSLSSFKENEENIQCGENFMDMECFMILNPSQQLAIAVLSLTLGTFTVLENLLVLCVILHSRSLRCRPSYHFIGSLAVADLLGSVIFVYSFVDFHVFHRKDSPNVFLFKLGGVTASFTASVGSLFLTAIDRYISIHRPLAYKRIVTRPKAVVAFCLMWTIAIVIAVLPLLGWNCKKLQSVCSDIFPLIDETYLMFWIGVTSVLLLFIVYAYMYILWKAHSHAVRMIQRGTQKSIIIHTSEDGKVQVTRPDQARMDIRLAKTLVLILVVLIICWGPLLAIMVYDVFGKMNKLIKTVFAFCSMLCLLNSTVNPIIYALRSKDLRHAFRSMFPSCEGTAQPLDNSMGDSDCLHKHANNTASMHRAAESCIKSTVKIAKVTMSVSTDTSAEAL
Chain of Fatty acid-binding protein 5 (Q01469 whole entry): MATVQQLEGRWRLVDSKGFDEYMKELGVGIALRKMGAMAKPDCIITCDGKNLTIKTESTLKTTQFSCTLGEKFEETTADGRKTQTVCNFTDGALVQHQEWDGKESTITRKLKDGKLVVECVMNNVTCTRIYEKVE

Ki (Cannabinoid receptor 2 [1]): 4.53 µM
SMILES: C/C=C\C=C\CC/C=C/C=C/C(=O)NCC(C)C

Ki (Cannabinoid receptor 2 [1]): 9.04 µM
SMILES: C/C=C/C=C\CC/C=C/C=C/C(=O)NCC(C)C

Ki (Cannabinoid receptor 2 [7]): 8.38 µM | Ki (Cannabinoid receptor 1 [8]): 11 µM
SMILES: CCC/C=C\CC/C=C/C=C/C(=O)NCC(C)C

Ki (Cannabinoid receptor 2 [9]): 0.057 µM | Ki (Cannabinoid receptor 1 [10]): 6.21 µM
SMILES: C/C=C\C=C/CC/C=C/C=C/C(=O)NCC(C)C

Ki (Cannabinoid receptor 2 [9]): > 40 µM | Ki (Cannabinoid receptor 1 [10]): > 40 µM
SMILES: C#CC#CCCCC/C=C/C(=O)NCC(C)C

Ki (Cannabinoid receptor 2 [13]): 0.828 µM
SMILES: CC(C)=CCC/C(C)=C/Cc1c(O)cc(CCc2ccccc2)c(C(=O)O)c1O

Ki (Cannabinoid receptor 1 [11]): 47.3 µM | Ki (Cannabinoid receptor 2 [12]): 95.6 µM
SMILES: O=C(O[C@@H]1Cc2c(O)cc(O)cc2O[C@@H]1c1ccc(O)c(O)c1)c1cc(O)c(O)c(O)c1 [EPICATECHIN GALLATE]

More lines, now with the values behind:

SMILES: CC(C)CNC(=O)/C=C/C=C/CCCCCC/C=C/c1ccc2c(c1)OCO2 [GUINEENSINE]
inhibition [2]: 59% | Efficacy (U-937): 65% | EC50 (U-937; Homo sapiens, U-937): 0.29 µM | Ki (Monoglyceride lipase): > 100 µM | IC50 [3]: 46.8 µM | Ki [4]: > 100 µM | Ki (Cannabinoid receptor 2 [5]): 38.3 µM | Ki (Cannabinoid receptor 1 [6]): > 20 µM

SMILES: CC#CC#CCCCC/C=C/C=C/C(=O)NCC(C)C
Ki (Cannabinoid receptor 2 [7]): 1.87 µM | Ki (Cannabinoid receptor 1 [8]): 24.6 µM

SMILES: Oc1cc(O)c2c(c1)O[C@H](c1cc(O)c(O)c(O)c1)[C@H](O)C2 [EPIGALLOCATECHIN]
Ki (Cannabinoid receptor 1 [11]): 35.7 µM | Ki (Cannabinoid receptor 2 [12]): 361 µM

SMILES: CC#CC#CCCCC/C=C/C(=O)NCC(C)CC (stereo unspecified)
Ki (Cannabinoid receptor 2 [7]): 7.2 µM | Ki (Cannabinoid receptor 1 [8]): 6.73 µM

SMILES: O=C(O[C@@H]1Cc2c(O)cc(O)cc2O[C@@H]1c1cc(O)c(O)c(O)c1)c1cc(O)c(O)c(O)c1 [EPIGALOCATECHIN GALLATE]
Ki (Cannabinoid receptor 2 [12]): 42.8 µM
